The text below walks through data of patent EP4786487A1, “PEPTIDE” (Peptidream Inc, priority 2023, dated 2025).

Common to all, as to assay type: cell-based
The target in one experiment is T1, GDF-11 (Homo sapiens, UniProt O95390).
T1 construct: purchased R&D systems 1958-GD-G8/CF
T1 sequence (O95390 299-407): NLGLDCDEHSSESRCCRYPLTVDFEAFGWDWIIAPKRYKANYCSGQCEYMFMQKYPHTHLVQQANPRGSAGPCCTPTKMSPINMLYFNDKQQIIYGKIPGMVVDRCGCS
As to the kind of experiment: Reporter gene assay for myostatin signaling in HepG2 cell line, Evaluation Procedure (1), GDF-11 inhibition. The settings on record: read-out: IC50 (Luciferase) GDF-11 HepG2. In outline: (§1)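 HepG2 cells transfected with pGL3(CAGA)12-luciferase reporter, serum-starved in 0.1% BSA medium, then stimulated with myostatin or GDF-11 plus 4-fold peptide dilutions (0.006–100 nmol/L for myostatin, 0.12–2000 nmol/L for GDF-11) for 20–24 h at 37 °C. Luminescence read with One-Glo; IC50 calculated.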

The target of experiment [1] is T2, Myostatin (Homo sapiens, UniProt O14793).
T2 construct: active myostatin (also called mature myostatin) is a homodimer consisting of two C-terminal growth factor domains; purchased R&D systems 788-G8/CF
T2 sequence (O14793 267-375): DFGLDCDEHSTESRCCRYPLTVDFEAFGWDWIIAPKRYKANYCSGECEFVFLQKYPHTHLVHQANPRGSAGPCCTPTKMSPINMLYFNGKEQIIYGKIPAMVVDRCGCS
The experiment can be described thus: HepG2 reporter gene assay, Evaluation Procedure (2): 2-concentrations assay, myostatin inhibition. The note with it: Myostatin 10 ng/mL, HepG2; for inhibition at 0.03 µM: peptide 30nM, read-out: Myostatin Inhibition 30nM; for inhibition at 0.1 µM: peptide 100nM, read-out: Myostatin Inhibition 100nM. In outline:
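HepG2 cells (HB-8065, ATCC) carrying the transfected pGL3(CAGA)12-luc reporter plasmid were treated with myostatin (788-G8/CF, R&D systems) at a final concentration of 10 ng/mL plus peptide and incubated at 37°C, 5% CO2 for 20 to 24 hours. Luminescence was read after adding PBS mixed 1:1 with One-Glo substrate, and inhibition rate was calculated.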

The subject of experiment [2] is Myostatin. The experiment can be described thus: Reporter gene assay for myostatin signaling in HepG2 cell line, Evaluation Procedure (1), myostatin inhibition. The settings on record: GDF-11 IC50 versus Myostatin IC50. In outline: as §1
On the technique in general: A reporter such as luciferase makes a cellular process visible.

Experiment [3] has as its target T2, Myostatin. The description is as above. The note with it: read-out: IC50 (Luciferase) Myostatin HepG2. In outline:
as §1

SMILES strings stand for the structures. Read-outs that look alike come from different tables or passages of the source. Starred links: 1 amine or outer side, 2 acyl side, 3 side chain; linkers in the order of their positions; H or OH if unused. Positions of bridges follow the written chain, without caps; N, C: chain ends. Non-standard residues stand in square brackets, D forms with d. Residues, ends and D or L forms follow the SMILES beside them. *: point of attachment. X13 = O=C(O)c1ccc(-n2cc(C[C@H](N[*:1])C(=O)[*:2])c3ccccc32)cc1; Phe(3-OCH2COOH) = N[C@@H](Cc1cccc(OCC(=O)O)c1)C(=O)O; Piperidine(4-CH2CH2CONH2) = NC(=O)CCC1CCN(*)CC1; Trp(6-OH) = N[C@@H](Cc1c[nH]c2cc(O)ccc12)C(=O)O; Phe(4-COOH) = N[C@@H](Cc1ccc(C(=O)O)cc1)C(=O)O; Piperazinyl(4-CH2COOH) = O=C(O)CN1CCN(*)CC1; Gly(decyl) = CCCCCCCCCC[C@H](N)C(=O)O; Gly(N(CH2)3COOH) = O=C(O)CCCNCC(=O)O; Gly(octyl) = CCCCCCCC[C@H](N)C(=O)O; X1 = CCCCCCC[C@H](N[*:1])C(=O)[*:2]; Gly(N-(CH2)3OMe) = COCCCNCC(=O)O; NMeF = CN[C@@H](Cc1ccccc1)C(=O)O; NMeE = CN[C@@H](CCC(=O)O)C(=O)O; Cha = N[C@@H](CC1CCCCC1)C(=O)O; NMeA = CN[C@@H](C)C(=O)O; NEtG = CCNCC(=O)O; Sar = CNCC(=O)O

The term IC50 denotes the midpoint of a concentration-inhibition curve. For orientation: inhibition means the change of the read-out against control, counted positive when it falls. Consider `CCCCCCCCCC[C@@H]1NC(=O)[C@H](CC2CCCCC2)NC(=O)[C@H](CCCNC(=N)N)NC(=O)[C@H](Cc2ccc(C(=O)O)cc2)NC(=O)[C@H](Cc2cccc(OCC(=O)O)c2)NC(=O)CN(C)C(=O)[C@H]([C@@H](C)CC)NC(=O)[C@H](Cc2ccccc2)N(C)C(=O)[C@H](Cc2ccc(O)cc2)NC(=O)[C@H](Cc2c[nH]c3ccccc23)NC(=O)[C@H](C)NC(=O)[C@H](C)NC(=O)CSC[C@H](C(=O)N2CCN(CC(=O)O)CC2)NC(=O)[C@H](Cc2ccccc2)N(C)C(=O)[C@H](CCC(=O)O)N(C)C1=O` [Myostatin_99_v261] ({CH2CO}-AAWY[NMeF]I[Sar][Phe(3-OCH2COOH)][Phe(4-COOH)]R[Cha][Gly(decyl)][NMeE][NMeF][dC]-{Piperazinyl(4-CH2COOH)}; thioether N-15), for which the IC50 on GDF-11 (Method B: GDF-11 1 ng/mL) stood at 29 nM. Also, on Myostatin [1], the inhibition at 0.03 µM was 26% and the inhibition at 0.1 µM came out at 72%. In the experiment with Myostatin [2] (Method B), this compound returned a Selectivity of 181. For the same compound, the IC50 at Myostatin [3] (Method B: Myostatin 1 ng/mL) was 0.16 nM.

On to `CCCCCCCCCC[C@@H]1NC(=O)[C@H](Cc2ccccc2)N(C)C(=O)[C@H](CCCNC(=N)N)NC(=O)[C@H](Cc2ccc(C(=O)O)cc2)NC(=O)[C@H](Cc2cccc(OCC(=O)O)c2)NC(=O)CN(C)C(=O)[C@H]([C@@H](C)CC)NC(=O)[C@H](Cc2ccccc2)N(C)C(=O)[C@H](Cc2ccc(O)cc2)NC(=O)[C@H](Cc2c[nH]c3ccccc23)NC(=O)[C@H](C)NC(=O)[C@H](C)NC(=O)CSC[C@H](C(=O)N2CCN(CC(=O)O)CC2)NC(=O)[C@H](Cc2ccccc2)N(C)C(=O)[C@H](CCC(=O)O)N(C)C1=O` [Myostatin_99_v265] ({CH2CO}-AAWY[NMeF]I[Sar][Phe(3-OCH2COOH)][Phe(4-COOH)]R[NMeF][Gly(decyl)][NMeE][NMeF][dC]-{Piperazinyl(4-CH2COOH)}; thioether N-15), for which, at GDF-11 (Method B: GDF-11 1 ng/mL), the IC50 was determined as 5.3 nM. Moreover, on Myostatin [1], the inhibition at 0.03 µM was 91% and the inhibition at 0.1 µM is 98%. Further, the Selectivity with Myostatin [2] (Method B) was 55. Further, the IC50 at Myostatin [3] (Method B: Myostatin 1 ng/mL) amounted to 0.1 nM.

As to `CCCCCCC[C@@H]1NC(=O)[C@H](Cc2ccccc2)N(C)C(=O)[C@H](CCCNC(=N)N)NC(=O)[C@H](Cc2ccc(C(=O)O)cc2)NC(=O)[C@H](Cc2cccc(OCC(=O)O)c2)NC(=O)[C@H](C)N(C)C(=O)[C@H]([C@@H](C)CC)NC(=O)[C@H](Cc2ccccc2)N(C)C(=O)[C@H](Cc2ccc(O)cc2)NC(=O)[C@H](Cc2cn(-c3ccc(C(=O)O)cc3)c3ccccc23)NC(=O)[C@H](C)NC(=O)CN(CCCC(=O)O)C(=O)CSC[C@H](C(=O)O)NC(=O)[C@H](Cc2ccccc2)N(C)C(=O)[C@H](C)N(C)C1=O` [Myostatin_99_v372] ({CH2CO}-[Gly(N(CH2)3COOH)]A[X13]Y[NMeF]I[NMeA][Phe(3-OCH2COOH)][Phe(4-COOH)]R[NMeF][X1][NMeA][NMeF][dC]-OH; thioether N-15), the IC50 amounted to 7.08 nM on GDF-11 (Method D: GDF-11 1.5 ng/mL) and 0.09 nM at Myostatin [3] (Method D: Myostatin 1.5 ng/mL). The compound also had a Selectivity in the experiment with Myostatin [2] (Method D) of 76.611.

Take `CCCCCCCCCC[C@@H]1NC(=O)[C@H](Cc2ccccc2)N(C)C(=O)[C@H](CCCNC(=N)N)NC(=O)[C@H](Cc2ccc(C(=O)O)cc2)NC(=O)[C@H](Cc2cccc(OCC(=O)O)c2)NC(=O)[C@H]2CCCN2C(=O)[C@H]([C@@H](C)CC)NC(=O)[C@H](Cc2ccccc2)N(C)C(=O)[C@H](Cc2ccc(O)cc2)NC(=O)[C@H](Cc2c[nH]c3cc(O)ccc23)NC(=O)[C@H](C)NC(=O)[C@H](C)NC(=O)CSC[C@H](C(=O)N2CCC(CCC(N)=O)CC2)NC(=O)[C@H](Cc2ccccc2)N(C)C(=O)[C@H](CCC(=O)O)N(C)C1=O` [Myostatin_99_v382] ({CH2CO}-AA[Trp(6-OH)]Y[NMeF]I[dP][Phe(3-OCH2COOH)][Phe(4-COOH)]R[NMeF][Gly(decyl)][NMeE][NMeF][dC]-{Piperidine(4-CH2CH2CONH2)}; thioether N-15): the IC50 stood at 29.6 nM at GDF-11 (Method D: GDF-11 1.5 ng/mL) and 0.04 nM on Myostatin [3] (Method D: Myostatin 1.5 ng/mL). The Selectivity with Myostatin [2] (Method D) is recorded as 711.775.

For the compound `CCCCCCCCCC[C@@H]1NC(=O)[C@H](Cc2ccccc2)N(C)C(=O)[C@H](CCCNC(=N)N)NC(=O)[C@H](Cc2ccc(C(=O)O)cc2)NC(=O)[C@H](Cc2cccc(OCC(=O)O)c2)NC(=O)CN(CC)C(=O)[C@H]([C@@H](C)CC)NC(=O)[C@H](Cc2ccccc2)N(C)C(=O)[C@H](Cc2ccc(O)cc2)NC(=O)[C@H](Cc2c[nH]c3cc(O)ccc23)NC(=O)[C@H](C)NC(=O)[C@H](C)NC(=O)CSC[C@H](C(=O)N2CCC(CCC(N)=O)CC2)NC(=O)[C@H](Cc2ccccc2)N(C)C(=O)[C@H](CCC(=O)O)N(C)C1=O` [Myostatin_99_v383] ({CH2CO}-AA[Trp(6-OH)]Y[NMeF]I[NEtG][Phe(3-OCH2COOH)][Phe(4-COOH)]R[NMeF][Gly(decyl)][NMeE][NMeF][dC]-{Piperidine(4-CH2CH2CONH2)}; thioether N-15), the IC50 at GDF-11 (Method D: GDF-11 1.5 ng/mL) stood at 40.5 nM; on Myostatin [3] (Method D: Myostatin 1.5 ng/mL), 0.18 nM. The Selectivity in the experiment on Myostatin [2] (Method D) is recorded as 220.797.

With `CCCCCCCCCC[C@@H]1NC(=O)[C@H](Cc2ccccc2)N(C)C(=O)[C@H](CCCNC(=N)N)NC(=O)[C@H](Cc2ccc(C(=O)O)cc2)NC(=O)[C@H](Cc2cccc(OCC(=O)O)c2)NC(=O)[C@H]2CCCN2C(=O)[C@H]([C@@H](C)CC)NC(=O)[C@H](Cc2ccccc2)N(C)C(=O)[C@H](Cc2ccc(O)cc2)NC(=O)[C@H](Cc2c[nH]c3cc(O)ccc23)NC(=O)[C@H](C)NC(=O)[C@H](C)NC(=O)CSC[C@H](C(=O)N2CCN(CC(=O)O)CC2)NC(=O)[C@H](Cc2ccccc2)N(C)C(=O)[C@H](CCC(=O)O)N(C)C1=O` [Myostatin_99_v384] ({CH2CO}-AA[Trp(6-OH)]Y[NMeF]I[dP][Phe(3-OCH2COOH)][Phe(4-COOH)]R[NMeF][Gly(decyl)][NMeE][NMeF][dC]-{Piperazinyl(4-CH2COOH)}; thioether N-15), the IC50 at GDF-11 (Method D: GDF-11 1.5 ng/mL) amounted to 32.8 nM; on Myostatin [3] (Method D: Myostatin 1.5 ng/mL), 0.04 nM. Moreover, the Selectivity in the experiment with Myostatin [2] (Method D) was found to be 805.658.

In the case of `CCCCCCCCCC[C@@H]1NC(=O)[C@H](Cc2ccccc2)N(C)C(=O)[C@H](CCCNC(=N)N)NC(=O)[C@H](Cc2ccc(C(=O)O)cc2)NC(=O)[C@H](Cc2cccc(OCC(=O)O)c2)NC(=O)CN(CC)C(=O)[C@H]([C@@H](C)CC)NC(=O)[C@H](Cc2ccccc2)N(C)C(=O)[C@H](Cc2ccc(O)cc2)NC(=O)[C@H](Cc2c[nH]c3cc(O)ccc23)NC(=O)[C@H](C)NC(=O)[C@H](C)NC(=O)CSC[C@H](C(=O)N2CCN(CC(=O)O)CC2)NC(=O)[C@H](Cc2ccccc2)N(C)C(=O)[C@H](CCC(=O)O)N(C)C1=O` [Myostatin_99_v385] ({CH2CO}-AA[Trp(6-OH)]Y[NMeF]I[NEtG][Phe(3-OCH2COOH)][Phe(4-COOH)]R[NMeF][Gly(decyl)][NMeE][NMeF][dC]-{Piperazinyl(4-CH2COOH)}; thioether N-15), the IC50 at GDF-11 (Method D: GDF-11 1.5 ng/mL) was determined as 42.5 nM; at Myostatin [3] (Method D: Myostatin 1.5 ng/mL), 0.17 nM. This compound also had a Selectivity in the experiment with Myostatin [2] (Method D) of 251.449.

Consider `CCCCCCCC[C@@H]1NC(=O)[C@H](Cc2ccccc2)N(C)C(=O)[C@H](CCCNC(=N)N)NC(=O)[C@H](Cc2ccc(OC)cc2)NC(=O)[C@H](Cc2cccc(OCC(=O)O)c2)NC(=O)CN(C)C(=O)[C@H]([C@@H](C)CC)NC(=O)[C@H](Cc2ccccc2)N(C)C(=O)[C@H](Cc2ccc(O)cc2)NC(=O)[C@H](Cc2c[nH]c3cc(O)ccc23)NC(=O)[C@H](C)NC(=O)CN(CCCOC)C(=O)CSC[C@H](C(N)=O)NC(=O)[C@H](Cc2ccccc2)N(C)C(=O)[C@H](C)N(C)C1=O` [Myostatin_99_v418] ({CH2CO}-[Gly(N-(CH2)3OMe)]A[Trp(6-OH)]Y[NMeF]I[Sar][Phe(3-OCH2COOH)]Y(Me)R[NMeF][Gly(octyl)][NMeA][NMeF][dC]-NH2; thioether N-15), for which the values for the IC50 at GDF-11 (Method D: GDF-11 1.5 ng/mL) and at Myostatin [3] (Method D: Myostatin 1.5 ng/mL) were 29.6 nM and 0.22 nM, respectively. The same compound had a Selectivity in the experiment on Myostatin [2] (Method D) of 136.2.
